The values below are quoted from earlier work in patent US20230310465A1, “NANO LIPID CARRIER SYSTEM FOR IMPROVING PERMEATION OF ACTIVE INGREDIENTS” (LEIUTIS PHARMACEUTICALS LLP, priority 2020, published 2023).

The conditions of this data set: from Akynezo, healthy subjects.

For the compound `Cc1ccccc1-c1cc(N2CCN(C)CC2)ncc1N(C)C(=O)C(C)(C)c1cc(C(F)(F)F)cc(C(F)(F)F)c1` [Netupitant, 2-[3,5-bis(trifluoromethyl)phenyl]-N,2-dimethyl-N-[4-(2methylphenyl)-6-(4-methylpiperazin-1-yl)pyridin-3-yl]propenamide], the Tmax result is listed as “about 5 hrs”.
